From patent publication US20080076166A1, “Method For Producing Polyunsaturated Fatty Acids In Transgenic Organisms” (priority 2004, published 2008)
Where two headings read alike, the source gives them in different places.

Columns and labels:
[1] = tested on: desaturase OtDes6.1 (Δ6-desaturase); assay type: cell-based, Ostreococcus tauri; details: for Activity in %: yeast transformed with pYES2-OtDes6.1, conversion rate [substrate/(substrate+product)*100], mean (n=3)
From the text: (§1) The Saccharomyces cerevisiae strain 334 was transformed with the vector pYES2.1-OtD6.1 by electroporation (1500 V). A yeast which was transformed with the blank vector pYES2 was used as control. The transformed yeasts were selected on complete minimal dropout uracil medium (CMdum) agar plates supplemented with 2% glucose. After the selection, in each case three transformants were selected for the further functional expression.
(§2) To express the OtD6.1 desaturase, precultures consisting of in each case 5 ml of CMdum dropout uracil liquid medium supplemented with 2% (w/v) raffinose were initially inoculated with the selected transformants and incubated for 2 days at 30° C. and 200 rpm. Then, 5 ml of CMdum (dropout uracil) liquid medium supplemented with 2% raffinose and 300 μM various fatty acids were inoculated with the precultures to an OD600 of 0.05. Expression was induced by the addition of 2% (w/v) galactose. The cultures were incubated for a further 96 hours at 20° C.
The yeast cells from the main cultures were harvested by centrifugation (100×g, 5 min, 20° C.) and washed with 100 mM NaHCO3, pH 8.0 to remove residual medium and fatty acids. The yeast cell sediments were extracted for 4 hours using chloroform/methanol (1:1). The resulting organic phase was extracted with 0.45% NaCl, dried with Na2SO4 and evaporated in vacuo. Applying thin-layer chromatography (horizontal tank, chloroform:methanol:acetic acid 65:35:8), the lipid extract was separated further into the lipid classes phosphatidylcholine (PC), phosphatidylinosotol (PI), phosphatidylserine (PS), phsophatidylethanolamine (PE) and neutral lipids (NL). The various separated spots on the thin-layer plate were scraped off. For the gas-chromatographic analysis, fatty acid methyl esters (FAMEs) were prepared by acid methanolysis. To this end, the cell sediments were incubated for one hour at 80° C. together with 2 ml of 1 N methanolic sulfuric acid and 2% (v/v) dimethoxypropane. The FAMEs were extracted twice with petroleum ether (PE). To remove nonderivatized fatty acids, the organic phases were washed in each case once with 2 ml of 100 mM NaHCO3, pH 8.0 and 2 ml of distilled water. Thereafter, the PE phases were dried with Na2SO4, evaporated under argon and taken up in 100 μl of PE. The samples were separated on a DB-23 capillary column (30 m, 0.25 mm, 0.25 μm, Agilent) in a Hewlett-Packard 6850 gas chromatograph equipped with flame ionization detector. The conditions for the GLC analysis were as follows: the oven temperature was programmed from 50° C. to 250° C. with a 5° C./min increment and finally 10 min at 250° C. (holding).
The signals were identified by comparing the retention times with corresponding fatty acid standards (Sigma). The methodology is described for example in Napier and Michaelson, 2001, Lipids. 36(8):761-766; Sayanova et al., 2001, Journal of Experimental Botany. 52(360):1581-1585, Sperling et al., 2001, Arch. Biochem. Biophys. 388(2):293-298 and Michaelson et al., 1998, FEBS Letters. 439(3):215-218.
The substrate specificity of OtDes6.1 was determined after expression and after feeding various fatty acids. The substrates fed can be detected in large amounts in all of the transgenic yeasts. […]
The yeasts which had been transformed with the vector pYES2-OtDes6.1 were grown in minimal medium in the presence of the stated fatty acids. […] Thereafter, the FAMEs were analyzed via GLC. […] The activity corresponds to the conversion rate calculated using the formula [[…]].

[2] = tested on: elongase OtElo1 (Δ5-elongase); assay type: cell-based, Ostreococcus tauri; details: for Conversion rate (in %): yeast transformed with pOTE1, grown in presence of the fatty acid, FAMEs by GLC, mean (n=3) ± standard deviation
From the text: as §1, with “pOTE1 or pOTE2, respectively,” for “pYES2.1-OtD6.1”
as §2, with “Ot elongases,” for “OtD6.1 desaturase,”
The yeast cells from the main cultures were harvested by centrifugation (100×g, 5 min, 20° C.) and washed with 100 mM NaHCO3, pH 8.0 to remove residual medium and fatty acids. Starting with the yeast cell sediments, fatty acid methyl esters (FAMEs) were prepared by acid methanolysis. To this end, the cell sediments were incubated for one hour at 80° C. together with 2 ml of 1 N methanolic sulfuric acid and 2% (v/v) of dimethoxypropane. The FAMEs were extracted twice with petroleum ether (PE). To remove nonderivatized fatty acids, the organic phases were washed in each case once with 2 ml of 100 mM NaHCO3, pH 8.0 and 2 ml of distilled water. […]
The substrate specificity of OtElo1 was determined after expression and after feeding various fatty acids (Tab. 2). The substrates fed can be detected in large amounts in all of the transgenic yeasts. […]
The yeasts which had been transformed with the vector pOTE1 were grown in minimal medium in the presence of the fatty acids stated. […] Thereafter, the FAMEs were analyzed by GLC. […]

OtD6 + PSE1 + PtD5 = experiment: Reconstitution of the PUFA biosynthesis in yeast, total fatty acids; assay type: cell-based; details: to DHGLA and DHSTA, FIG. 5
Method: The yeast cells from the main cultures were harvested by centrifugation (100×g, 5 min, 20° C.) and washed with 100 mM NaHCO3, pH 8.0 to remove residual medium and fatty acids. The yeast cell sediments were extracted for 4 hours using chloroform/methanol (1:1). The resulting organic phase was extracted with 0.45% NaCl, dried with Na2SO4 and evaporated in vacuo. […] For the gas-chromatographic analysis, fatty acid methyl esters (FAMEs) were prepared by acid methanolysis. To this end, the cell sediments were incubated for one hour at 80° C. together with 2 ml of 1 N methanolic sulfuric acid and 2% (v/v) dimethoxypropane. The FAMEs were extracted twice with petroleum ether (PE). To remove nonderivatized fatty acids, the organic phases were washed in each case once with 2 ml of 100 mM NaHCO3, pH 8.0 and 2 ml of distilled water. Thereafter, the PE phases were dried with Na2SO4, evaporated under argon and taken up in 100 μl of PE. The samples were separated on a DB-23 capillary column (30 m, 0.25 mm, 0.25 μm, Agilent) in a Hewlett-Packard 6850 gas chromatograph equipped with flame ionization detector. The conditions for the GLC analysis were as follows: the oven temperature was programmed from 50° C. to 250° C. with a 5° C./min increment and finally 10 min at 250° C. […]
The parameters measured were the total fatty acids.

[3] = tested on: elongase OtElo2 (Δ6-elongase); assay type: cell-based, Ostreococcus tauri
From the text: as §1, with “pOTE1 or pOTE2, respectively,” for “pYES2.1-OtD6.1”
as §2, with “express the Ot elongases, precultures consisting” for “express the OtD6.1 desaturase, precultures consisting”, “20° C. […]” for “20° C.”
The substrate specificity of OtElo2 (SEQ ID NO: 1) was determined after expression and after feeding various fatty acids (Tab. 3). The substrates fed can be detected in large amounts in all of the transgenic yeasts. […]
The yeasts which had been transformed with the vector pOTE2 were grown in minimal medium in the presence of the fatty acids stated. […] Thereafter, the FAMEs were analyzed by GLC. […]

Compound: CCCCCC/C=C\CCCCCCCC(=O)O [16:1^Δ9, palmitoleic acid]
- Activity of OtDes6.1, in words [1]: markedly less pronounced
- Activity in % [1]: 5.6%

Compound: CC/C=C\C/C=C\C/C=C\CCCCCCCC(=O)O [18:3^Δ9,12,15, linolenic acid]
- Activity in % [1]: 64.6%

Compound: CCCCC/C=C\C/C=C\CCCCCCCC(=O)O [18:2^Δ9,12, linoleic acid]
- Activity of OtDes6.1, in words [1]: highest activities
- Activity in % [1]: 68.7%

Compound: CCCCC/C=C\C/C=C\C/C=C\C/C=C\CCCC(=O)O [20:4^Δ5,8,11,14, arachidonic acid]
- Elongation by OtElo1, in words ([2]; Table 2, FIG. 2 and 3): capable of elongating
- Conversion rate (in %) [2]: 10.8 ± 0.6%

Compound: CC/C=C\C/C=C\C/C=C\C/C=C\CCCCC(=O)O [18:4^Δ6,9,12,15, stearidonic acid]
- Elongation of the OtDes6.1 reaction products in the presence of the Δ6-elongase PSE1 (OtD6 + PSE1 + PtD5): almost quantitatively
- Conversion rate (in %) ([3]; yeast transformed with pOTE2, grown in presence of the fatty acid, FAMEs by GLC, mean (n=3) ± standard deviation): 21.1%

Compound: CC/C=C\C/C=C\C/C=C\C/C=C\C/C=C\CCCC(=O)O [20:5^Δ5,8,11,14,17, eicosapentaenoic acid]
- Conversion rate (in %) [2]: 46.8 ± 3.6%

Compound: CCCCC/C=C\C/C=C\C/C=C\CCCCC(=O)O [18:3^Δ6,9,12, γ-linolenic acid]
- Elongation of the OtDes6.1 reaction products in the presence of the Δ6-elongase PSE1 (OtD6 + PSE1 + PtD5): almost quantitatively
- Conversion rate (in %) [3]: 15.3%
